Source: PMC8627988 (Molecular Metabolism, 2021)

Molecular target: T1, PPARγ (Homo sapiens, UniProt P37231)
T1 sequence (P37231 235-505 limits assumed): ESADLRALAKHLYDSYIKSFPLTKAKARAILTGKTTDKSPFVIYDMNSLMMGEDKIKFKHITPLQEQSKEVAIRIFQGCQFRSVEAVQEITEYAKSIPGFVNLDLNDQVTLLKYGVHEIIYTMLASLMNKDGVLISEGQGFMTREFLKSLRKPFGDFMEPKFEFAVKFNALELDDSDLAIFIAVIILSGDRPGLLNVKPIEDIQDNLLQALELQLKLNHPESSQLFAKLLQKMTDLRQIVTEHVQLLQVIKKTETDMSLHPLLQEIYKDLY
Assay: fluorescence polarization competition binding

IC50: ~11 nM
SMILES: Cc1c(C)n(Cc2ccc(-c3ccccc3C(=O)O)cc2)c2ccc(C(=O)NCc3cccc(O)c3)cc12 [WO95E, 4'-((5-((3-hydroxybenzyl)carbamoyl)-2,3-dimethyl-1H-indol-1-yl)methyl)-[1,1′-biphenyl]-2-carboxylic acid]
